Consider six compounds from EP4692094A1 (Beijing Konruns Pharmaceutical Co., Ltd., priority 2023, dated 2024).

The IC50 is the point on the concentration scale where inhibition reaches its midpoint. A higher IC50 goes with lower potency. As usually defined, the AUC(0-inf) is the area under the concentration-time curve extrapolated to infinity. Low readings indicate less exposure, high ones more exposure. The Cmax is the maximum level reached in the sampled fluid or tissue. Broadly, the Tmax is the time from dosing to the highest level.

One data set deals with T1, KAT6A (Homo sapiens, UniProt Q92794).
T1 construct: purchased active motife (Active Motif) 81223
T1 sequence (Q92794 whole entry): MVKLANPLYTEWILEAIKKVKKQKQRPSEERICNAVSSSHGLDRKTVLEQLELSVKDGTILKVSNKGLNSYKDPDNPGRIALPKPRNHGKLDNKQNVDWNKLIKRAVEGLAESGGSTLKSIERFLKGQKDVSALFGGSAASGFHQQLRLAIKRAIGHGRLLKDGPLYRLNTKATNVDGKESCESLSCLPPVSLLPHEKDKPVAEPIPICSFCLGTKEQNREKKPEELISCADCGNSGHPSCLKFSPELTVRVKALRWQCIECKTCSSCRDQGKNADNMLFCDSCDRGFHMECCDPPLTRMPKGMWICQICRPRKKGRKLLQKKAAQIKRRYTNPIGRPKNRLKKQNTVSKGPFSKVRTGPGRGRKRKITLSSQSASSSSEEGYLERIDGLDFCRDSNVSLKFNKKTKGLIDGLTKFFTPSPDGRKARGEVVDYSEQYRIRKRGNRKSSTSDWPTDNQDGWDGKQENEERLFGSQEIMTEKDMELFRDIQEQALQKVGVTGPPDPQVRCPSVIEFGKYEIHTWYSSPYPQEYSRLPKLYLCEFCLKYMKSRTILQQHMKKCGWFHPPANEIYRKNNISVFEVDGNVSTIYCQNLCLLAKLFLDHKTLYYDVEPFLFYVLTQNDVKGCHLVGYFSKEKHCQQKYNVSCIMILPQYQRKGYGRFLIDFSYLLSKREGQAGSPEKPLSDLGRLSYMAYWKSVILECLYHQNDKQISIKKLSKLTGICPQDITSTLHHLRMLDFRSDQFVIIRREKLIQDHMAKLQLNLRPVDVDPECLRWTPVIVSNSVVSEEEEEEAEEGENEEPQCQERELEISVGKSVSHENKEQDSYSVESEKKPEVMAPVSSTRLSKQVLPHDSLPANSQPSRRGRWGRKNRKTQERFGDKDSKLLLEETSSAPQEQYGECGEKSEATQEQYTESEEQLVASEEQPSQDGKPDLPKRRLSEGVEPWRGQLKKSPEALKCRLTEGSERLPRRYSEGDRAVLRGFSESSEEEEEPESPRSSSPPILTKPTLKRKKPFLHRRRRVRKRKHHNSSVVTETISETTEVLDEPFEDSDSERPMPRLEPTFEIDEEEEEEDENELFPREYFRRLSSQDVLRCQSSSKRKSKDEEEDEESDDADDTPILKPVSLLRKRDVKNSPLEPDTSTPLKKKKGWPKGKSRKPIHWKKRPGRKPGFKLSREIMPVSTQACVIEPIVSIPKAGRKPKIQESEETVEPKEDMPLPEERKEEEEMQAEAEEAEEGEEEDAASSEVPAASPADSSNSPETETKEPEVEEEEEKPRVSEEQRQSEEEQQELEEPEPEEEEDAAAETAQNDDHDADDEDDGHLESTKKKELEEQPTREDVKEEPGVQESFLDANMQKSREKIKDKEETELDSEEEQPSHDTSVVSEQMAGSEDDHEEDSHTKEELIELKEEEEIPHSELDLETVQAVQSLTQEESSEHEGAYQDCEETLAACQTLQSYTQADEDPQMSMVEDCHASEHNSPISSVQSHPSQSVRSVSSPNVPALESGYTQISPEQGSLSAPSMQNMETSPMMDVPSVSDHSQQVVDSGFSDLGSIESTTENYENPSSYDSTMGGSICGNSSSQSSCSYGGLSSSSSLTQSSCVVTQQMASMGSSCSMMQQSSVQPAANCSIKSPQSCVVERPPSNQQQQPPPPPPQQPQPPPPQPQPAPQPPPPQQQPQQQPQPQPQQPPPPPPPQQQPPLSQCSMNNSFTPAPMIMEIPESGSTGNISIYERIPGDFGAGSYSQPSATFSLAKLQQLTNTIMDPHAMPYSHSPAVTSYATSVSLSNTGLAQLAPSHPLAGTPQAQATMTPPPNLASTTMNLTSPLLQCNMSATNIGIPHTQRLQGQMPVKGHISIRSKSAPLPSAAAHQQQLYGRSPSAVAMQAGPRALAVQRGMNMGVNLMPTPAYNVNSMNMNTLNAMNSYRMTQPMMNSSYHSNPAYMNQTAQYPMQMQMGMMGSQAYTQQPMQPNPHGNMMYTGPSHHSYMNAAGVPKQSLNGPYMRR
Description: Enzymatic activity assay for KAT6A acetyltransferase (TR-FRET, acetylation of histone substrate H3). Type of data set: biochemical. An outline of the steps:
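TR-FRET detection of biotinylated H3 acetylation by KAT6A with acetyl-CoA; compounds in 10-point 3-fold dilution (0.5% DMSO final) preincubated with enzyme 10 min at 25 °C, then 90 min reaction and 60 min Eu-antibody/ULight-SA detection at 25 °C. HTRF 665/615 ratio normalised to DMSO (0%) and top-dose control (100%); IC50 by nonlinear fit.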

Data set [1] in a line: Assay for plasma protein binding rate (equilibrium dialysis), human plasma. Type of data set: in vitro ADME. The following applies: dialysis 6 h at 37 °C, read-out: Human (Fu%). How it is done:
(§1) 1.1 Preparation of compounds: The compounds prepared in the examples were each dissolved in dimethylsulfoxide to give solutions at a concentration of 10 mmol/L. • 1) The example compounds were each diluted from 10 mmol/L stock solution to 0.2 mmol/L, i.e., 1 µL of the compound was added to 49 µL of DMSO; • 2) 3 µL of 0.2 mmol/L test compounds were added to 597 µL of blood plasma, and the mixtures were vortexed at 1000 rpm for 2 min; • 3) 50 µL of the plasma containing the drug in 2) was taken, 50 µL of PBS was added, and 300 µL of methanol internal standard* was added to serve as a sample T0; • 4) 120 µL of the plasma containing the drug in 2) was taken and added to one side of an HTD device membrane, and 120 µL of PBS was added to the other side of the membrane; a breathable film was covered, and the plasma and the residual sample in 2) were balanced at 37 °C (100 rpm and 5% CO2) for 6 h; • 5) 50 µL of the dialyzed plasma side sample was taken, 50 µL of PBS was added, and 300 µL of methanol internal standard* was added to serve as a sample P; • 6) 50 µL of the dialyzed PBS side sample was taken, 50 µL of blank plasma was added, and 300 µL of methanol internal standard* was added to serve as a sample B; • 7) 50 µL of the plasma containing the drug in 2) was taken, 50 µL of PBS was added, and 300 µL of methanol internal standard* was added to serve as a sample T6; • 8) All samples were vortexed, mixed homogeneously, and then centrifuged at 3220 g for 40 min at 4 °C; • 9) 100 µL of the supernatant and 100 µL of purified water were mixed homogenously for liquid chromatography-mass spectrometry.
(§2) An internal standard method was used, and the plasma protein binding rate, recovery rate, and residual percentage were calculated by using Excel according to the ratio of the peak area of the sample to the peak area of the internal standard. Free rate(%) = (RatioB)/(RatioP) × 100% [formula] Binding rate(%) = 100%−Free rate% [formula] Recovery rate(%) = (RatioB + RatioP)/(RatioT0) × 100% [formula] Remaining percentage(%) = (RatioT6)/(RatioT0) × 100% [formula]
(§3) RatioB: a ratio of the peak area of the test substance on the PBS side to the peak area of the internal standard; RatioP: a ratio of the peak area of the test substance on the plasma side to the peak area of the internal standard; RatioT6: a ratio of the peak area of the sample after incubation with the test substance for 6 h to the peak area of the internal standard; RatioT0: a ratio of the peak area of the sample after incubation with the test substance for 0 h to the peak area of the internal standard. Table 8. Plasma protein binding rate (Fu%) data for various species of example compounds
(Equilibrium dialysis compares concentrations on both sides of a semipermeable membrane.)

A short description of data set [2]: Assay for plasma protein binding rate (equilibrium dialysis), mouse plasma. Type of data set: in vitro ADME. The following applies: dialysis 6 h at 37 °C, read-out: Mouse (Fu%). How it is done: as §1, §2, §3
The nature of data set [3]: Assay for plasma protein binding rate (equilibrium dialysis), rat plasma. Format: in vitro ADME. The following applies: dialysis 6 h at 37 °C, read-out: Rat (Fu%). How it is done:
as §1, §2, §3

Data set [4] can be described thus: Assay for plasma protein binding rate (equilibrium dialysis), dog plasma. Type of data set: in vitro ADME. The following applies: dialysis 6 h at 37 °C, read-out: Dog (Fu%). The protocol: as §1, §2, §3
A short description of data set [5]: In-vivo pharmacokinetic study in rats. Further details: species or system SD female rats. The following applies: female, SD, rat, plasma, po, intragastric administration, 5 mg/kg; for AUC(0-t): read-out: AUC0-24h. The protocol: 1.1 Instrument: high-performance liquid chromatograph: SHIMADZU LC-30AD; mass spectrum: AB SCIEX mass spectrometer Triple Quad 5500; all measured data were calculated and processed using Microsoft Excel, and relevant pharmacokinetic parameters were calculated using WinNonlin software. The main obtained kinetic parameters are Tmax, T1/2, Cmax, AUC0-24 h, and AUCinf. […] Sample injection amount: 1 µL.
1.2 Animals: three SD female rats were used. The body weight range was 180-300 g. After purchase, the rats were bred in the experimental animal center for two days for later use. The rats were fasted 12 h before administration and 4 h after administration, and given ad libitum access to water during the assay. Blood samples were taken at predetermined time points after intragastric administration.
1.3 Vehicle: 0.5% HPMC (hydroxypropyl methylcellulose) + 0.4% Tween80 + 99.1% water. Preparation of intragastric administration solution: The compound was precisely weighed, the vehicle was added, and then the drug was completely dissolved by ultrasonication at room temperature for 5 min and prepared into a 0.5 mg/mL solution. After the intragastric administration, blood samples were taken at 0.083 h, 0.25 h, 0.5 h, 1.0 h, 2.0 h, 4.0 h, 7.0 h, and 24 h. The blood collection mode is as follows: 0.2 mL of the jugular vein blood was collected, EDTA-K2 was used as an anticoagulation agent, the collected blood sample was transferred into a microcentrifuge tube containing the anticoagulation agent, and the tube was centrifuged at 4 °C and 4000 g for 5 min to separate the plasma. All plasma samples collected were stored at -75±15 °C until analysis.
The compound was precisely weighed and prepared into a standard curve working solution and a quality control working solution at different concentrations. The blank plasma was added and prepared into a plasma standard curve and a quality control sample. LC/MS/MS analysis was performed after pretreatment using a protein precipitation method, and then the concentration of the compounds described above in the plasma was measured. All measured data were collected and processed by the relevant software, and pharmacokinetic parameters were calculated using Winnonlin software. Table 9. Pharmacokinetic parameters of some compounds in the examples in rats

In the case of `COc1cc2c(cc1S(=O)(=O)Nc1noc3cc(Cn4cccn4)nc(OC)c13)CCO2` [Example 60, N-(6-((1H-Pyrazol-1-yl)methyl)-4-methoxyisoxazolo[4,5-c]pyridin-3-yl)-6-methoxy-2,3-dihvdrobenzofuran-5-sulfonamide], the IC50 at KAT6A is 1.01 nM. Also, the fraction unbound at 6 h, 1 µM in data set [1] was 0.0175. In addition, in data set [2], the fraction unbound at 6 h, 1 µM turned out to be 0.0358. Besides, in data set [3], the fraction unbound at 6 h, 1 µM was determined as 0.0516. The fraction unbound at 6 h, 1 µM in data set [4] was 0.0345. Moreover, in data set [5], the AUC(0-inf) came out at 26700 ng·h/mL, the Cmax came to 2310 ng/mL, the Tmax is 2.67 h and the AUC(0-t) worked out at 26200 ng·h/mL.

At KAT6A, `COc1ccc2occc2c1S(=O)(=O)Nc1noc2cc(Cn3cccn3)nc(OC)c12` [Example 45, N-(6-((1H-Pyrazol-1-yl)methyl)-4-methoxyisoxazolo[4,5-c]pyridin-3-yl)-5-methoxybenzofuran-4-sulfonamide] returned an IC50 of 9.45 nM. For the same compound, the fraction unbound at 6 h, 1 µM in data set [1] stood at 0.0066; in data set [2], 0.0145.

Take `COc1nc(Cn2cccn2)cc2onc(NS(=O)(=O)c3cccc4c3OCO4)c12` [Example 28, N-(6-((1H-Pyrazol-1-yl)methyl)-4-methoxyisoxazolo[4,5-c]pyridin-3-yl)-1,3-benzodioxole-4-sulfonamide]: at KAT6A, the midpoint of inhibition, the IC50, lay at 3.55 nM. The fraction unbound at 6 h, 1 µM in data set [1] stood at 0.0086; in data set [2], 0.0205.

Regarding `COc1cc2cccnc2cc1S(=O)(=O)Nc1noc2cc(Cn3cccn3)nc(OC)c12` [Example 75, N-(6-((1H-Pyrazol-1-yl)methyl)-4-methoxyisoxazolo[4,5-c]pyridin-3-yl)-6-methoxyquinoline-7-sulfonamide], at KAT6A, half-maximal inhibition (IC50) required 2.41 nM. Further, in data set [1], the fraction unbound at 6 h, 1 µM was found to be 0.0091. The fraction unbound at 6 h, 1 µM in data set [2] came to 0.0163. Further, in data set [5], the AUC(0-inf) was determined as 30600 ng·h/mL, the Cmax was determined as 10800 ng/mL, the Tmax turned out to be 0.25 h and the AUC(0-t) was 30600 ng·h/mL.

On KAT6A, `COc1cc2ccoc2cc1S(=O)(=O)Nc1noc2cc(Cn3cccn3)nc(OC)c12` [Example 44, N-(6-((1H-Pyrazol-1-yl)methyl)-4-methoxyisoxazolo[4,5-c]pyridin-3-yl)-5-methoxybenzofuran-6-sulfonamide] displayed an IC50 of 8.28 nM. Also, the fraction unbound at 6 h, 1 µM in data set [1] is 0.0149; in data set [2] it was 0.048; in data set [3] it was 0.0176; in data set [4] it was 0.0023.

`COc1cc2c(cc1S(=O)(=O)Nc1noc3cc(Cn4cccn4)nc(OC)c13)OCO2` [Example 57, N-(6-((1H-Pyrazol-1-yl)methyl)-4-methoxyisoxazolo[4,5-c]pyridin-3-yl)-6-methoxy-1,3-benzodioxole-5-sulfonamide]: the IC50 on KAT6A was 0.95 nM. Also, the fraction unbound at 6 h, 1 µM in data set [1] was 0.0264; in data set [2] it was 0.0565.
